Experimental findings from patent publication US11725027B2, “Hypersensitive response elicitor-derived peptides and use thereof” (priority 2016, dated 2023) are described below.

In series [1] the test system is Nicotiana tabacum cultivar xanthi plants. In words: Hypersensitive Response (HR) induction in tobacco leaves. It counts as in vivo. The arrangement: key to HR: Plants are considered HR-positive (“HR+”) if they exhibit wide-spread macroscopic cell death visible to the naked eye, accompanied by wilting and browning of the affected tissue within 48 hours; Plants are considered HR-negative (“HR−”) if they exhibit no discernible wilting or tissue death observable by naked eye. Conditions: tobacco leaf infused with 500, 250, 125, 62.5, 31.25 μg/ml peptide solutions, scored over 48 hours. The text has this:
A property of a peptide to elicit a hypersensitive response, or not, upon infiltration or application of the peptide to plant tissues can be measured by applying the peptide in dry powder form or in solution form to a plant, particularly though not exclusively a plant leaf.
The minimal eliciting sequence derived from was developed based on the sequence of the hrex gene from Xanthomonas campestris pv. pelargonii. A number of truncated and mutated sequences were synthesized and tested for Hypersensitive Response induction (results in Table 4). HR in tobacco was tested as described in Wei, Science 257:85-88 (1992), which is hereby incorporated by reference in its entirety. Briefly, peptides were dissolved at a concentration of 500 μg/ml in aqueous solution. Four serial dilutions were performed with an equal volume of water, yielding peptide samples at 500, 250, 125, 62.5, 31.25 μg/ml peptide solutions. Nicotiana tabacum cultivar xanthi plants were used at 5-7 weeks old (preflowering). Leaves were lightly punctured with a toothpick in a middle leaf panel. Peptide solutions were then infused via needle-less syringe into the wound, filling the panel. Each peptide sample was infused into a leaf of 2 different plants. The leaves were observed and scored over the next 48 hours for withering and browning, lesions typical of programmed cell death. These studies had […] main goals: (1) determine the minimal sequence sufficient for HR elicitation (2) increase the solution stability of the peptides; (3) make disruptive mutations to verify the residues which are most important for HR elicitation; (4) make conservative mutations to identify the degree of specificity for particular amino acids.

A short description of series [2]: Solution (formulation) stability at 50° C. (HPLC). In kind it is physicochemical. The note with it: 0.25% Proxel GXL. How it is done:
Peptides solutions were analyzed by HPLC for % loss of the peptide signal over time during incubation at 50° C., relative to the time 0 sample. Peptides were analyzed until the remaining peptide concentration decreased to 80% of original (20% degradation).

In the next series the test system is corn. In words: Drought resistance in corn (greenhouse, spray). Conditions: corn under drought. It counts as in vivo. How it is done:
The effectiveness of peptide treatment in reducing drought stress was assessed in corn and soy. 3.5 inch pots were filled with Sunshine #1 soil (SunGro Horticulture), fertilized with a 20-10-20 mixture. The soil was soaked and drained overnight. Seeds (either corn or soy, manually inspected to ensure uniform seed size) were planted at a depth of 1 inch for germination. Plants were grown in a greenhouse under 16 hour light days at >70° F. and 8 hour dark nights at >65° F. Prior to drought conditions, the plants were well-watered.
When the plants reached the V1 stage, plants were culled to achieve a uniform height (abnormally large and small plants were removed). Plants were then randomly assigned to control (spray without peptide) or treatment (spray with peptide) groups and heights were measured. Peptide was made up in a solution of 0.2 ug/ml or 2 ug/ml in distilled water+0.01% Tween-20, and applied as a fine mist from a spray bottle until the solution drips from the leaves. After the peptide solutions were dried, the plants were again randomized in a randomized complete block design. Drought stress was initiated after the peptide treatment. This was caused by maintaining the water level at 25-50% of the maximum capacity for water (capacity was decided as the weight of the pot filled with saturated soil minus the weight of the filled pot prior to adding water).
The drought test phase ended after 2-3 weeks. At that time, the plant height was again measured and the growth rate was calculated as the difference between this and the previously-recorded height. The above-ground part portions of the plants were harvested and weighed. The above-ground portion was also dried in an oven at 70° C. for 72 hours and a dry weight was obtained. All calculations were compared with matched untreated control plants.

For series [3], the system named is tobacco mosaic virus (TMV). In words: Induction of resistance to tobacco mosaic virus in tobacco. It counts as in vivo. Conditions: % decline in TMV lesions vs UTC, spray 20 ug/ml; for Effectiveness Covered (%): covered leaf (systemic response); for Effectiveness Uncovered (%): uncovered leaf (local response). How it is done: Peptides were tested for the induction of resistance to tobacco mosaic virus (TMV) in tobacco. Briefly, three tobacco plants at 6-8 weeks old were selected per group (samples and controls). The bottom-most leaf of the plant was covered and the plant was sprayed with a solution of water (untreated control—UTC), peptide, or Proact (positive control). The spray was applied until the leaves were fully wetted, indicated by liquid dripping from the leaves. The plants were then allowed to dry and the leaf covering was removed.
Three days post-treatment, the previously-covered leaf and a leaf on the opposite side of the plant were then lightly dusted with diatomaceous earth and 20 ul of a 1.7 ug/ml solution of purified tobacco mosaic virus was applied. The TMV solution was then spread across the leaf surface by lightly rubbing solution and the diatomaceous earth across the surface of the leaves. Two minutes after inoculation, the diatomaceous earth was rinsed off the leaves with water. 3 days after TMV inoculation, the leaves were scored based on the number of TMV lesions observed. The leaf was also scored for signs of the hypersensitive response, including yellowing and wilting of the affected leaves.
Effectiveness described in Table 6 refers to the % decline in TMV lesions on treated vs UTC plants. A reduction of TMV on covered leaves indicates a systemic immune response in the plant while reduction on uncovered leaves indicates a local response. Asterisks indicate that the P-value derived from a T-test was <0.05.

The test system of another series is soybean cyst nematodes. In words: Seed coating with peptides compared with chemical nematode agents in soy. It counts as in vivo, soy (Sheyenne variety). How it is done:
Additional experiments will be performed to examine the effectiveness of peptide treatment in suppressing the growth of soybean cyst nematodes using one or more of the other peptides in Tables 1 and 2, including, without limitation, P5-21 and P5-25. See Example 8 below.
The effectiveness of peptides was tested in soy (Sheyenne variety) and compared with current anti-nematode chemicals. Briefly, soy seeds were commercially coated with peptide at rates of 10, 30, or 90 ug peptide per seed or with chemical nematicides Avicta Complete, Clariva Complete, Poncho/Votivo, or Velum total. 3 soy seeds were planted in a mixture of topsoil and sand (pasteurized) in a 10 cm diameter pot and were inoculated with 1500 eggs per pot at planting. 10 replicate pots were used per experimental condition. After plants emerged from the soil, the plants were thinned to one plant per pot. Plants were harvested about 45 days after planting. The following measures were taken: (1) Fresh shoot and root weights; (2) Root condition graded 0-10 for the presence of disease; (3) Nematode cysts per plant; (4) Nematode eggs per plant; and optionally (5) Male nematodes. The following values were calculated: eggs per gram of root, cysts per gram of root, and eggs per cyst.

A short description of series [4]: Stability of material bulked with maltodextrin and buffer at room temperature. The note with it: bulked with maltodextrin and phosphate buffer (pH 8.0) or citrate buffer (pH 7.2), 48 hours. It counts as physicochemical. As for the experimental part:
Samples of material P5, P5-21, and P5-25 bulked with maltodextrin and either phosphate buffer (pH 8.0) or citrate buffer (pH 7.2) were tested for stability at room temperature for 48 hours.

For series [5] the following is noted: 50° C.; for peptide remaining: EDTA buffer pH 8.0, 50 mM. As for the experimental part:
Briefly, the stability and resistance to chemical degradation of peptides can be assessed as follows using peptide samples having an initial purity of at least about 80%, at least about 82%, at least about 84%, at least about 86%, at least about 88%, at least about 90%, at least about 92%, at least about 94%, at least about 96%, or at least about 98%. For water stability, the peptide is dissolved directly in de-ionized water. For chemical degradation tests, the peptide is dissolved in an aqueous solution containing 50 mM pH buffer and 0.25% Proxel GXL. Exemplary pH buffers include, without limitation: (i) Citrate pH 5.6; (ii) MES pH 6.0; (iii) MOPS pH 6.5; (iv) imidazole pH 7.5; (v) Citrate pH 7.2; (vi) EDDS, pH 7.3; (vii) EDTA pH 8.0; (viii) sodium phosphate pH 8.0; or (ix) TES pH 8.0. Peptides are first dissolved in the aqueous solution at a concentration of 0.5 mg/ml. The samples are incubated at 50° C. to allow for accelerated degradation. An initial sample of the peptide is removed, diluted 10× with water, and analyzed by reverse-phase HPLC. Briefly, 20 μl of the sample is injected into the solvent flow of an HPLC instrument and analyzed on a C18 HPLC column (YMC ProPack C18, YMC, Japan, or C18 Stablebond, Agilent Technologies, USA) using either a triethylamine phosphate in water/acetonitrile gradient or a 0.1% TFA in water/0.1% TFA in acetonitrile gradient to separate different peptide species. Eluting peptides are monitored by UV absorbance at 218 nm and quantified based on the area under the peak. The area under the peak for the initial peptide sample is treated as the standard for relative quantification in subsequent runs. At regular intervals (e.g., 1, 3, 7, 10, and 14 days), each peptide sample is surveyed and analyzed by HPLC as described above.
(§1) Stability against chemical degradation was assessed in various pH buffers by creating 0.2% AI solutions of pure, chemically synthesized peptide in deionized water, 0.25% weight to volume of Proxel® GXL (biocide), and 50 millimolar (mM) of nine buffers (separately) as follows: Citrate, pH 5.6, MES pH 6.0, MOPS pH 6.5, Citrate pH 7.2, EDDS pH 7.3, imidazole pH 7.5, EDTA pH 8, Phosphate pH 8, and TES pH 8.

The test system of another series is soy. In words: Drought resistance in soy (greenhouse, spray). In kind it is in vivo. Conditions: soy under cyclic drought, 2.0 ug/ml. How it is done:
The effectiveness of peptide treatment in reducing drought stress was assessed in soy. 3.5 inch pots were filled with Sunshine #1 soil (SunGro Horticulture), fertilized with a 20-10-20 mixture. The soil was soaked and drained overnight. Seeds (soy, manually inspected to ensure uniform seed size) were planted at a depth of half inch for germination. Plants were grown in a greenhouse under 16 hour light days at >70° F. and 8 hour dark nights at >65° F. Prior to drought conditions, the plants were well-watered.
When the plants reached the growth stage when first trifoliate expanded, plants were culled to achieve a uniform height (abnormally large and small plants were removed). Plants were then randomly assigned to control (spray without peptide) or treatment (spray with peptide) groups and heights were measured. Peptide was made up in a solution of 0.2 ug/ml or 2 ug/ml in distilled water+0.04% Tween-20, and applied as a fine mist from a spray bottle until the solution drips from the leaves. After the peptide solutions were dried, the plants were again randomized in a randomized complete block design. Cyclic drought stress was initiated after the peptide treatment. Plants were subjected to at least three drought cycles of drought stress (3-5 days of withholding water and 1 day irrigated with saturating amount of water) before harvesting.
The drought test phase ended after 2-3 weeks. At that time, the plant height was again measured and the growth rate was calculated as the difference between this and the previously-recorded height. The above-ground part portions of the plants were harvested and weighed to obtain fresh weight. The above-ground portion was also dried in an oven at 70° C. for 72 hours to obtain dry weight. All calculations were compared with matched untreated control plants.

The conditions of series [6]: 50 mM buffer solutions pH 5.6-8.0, 0.25% Proxel GXL. How it is done:
as §1

Marks after values point to notes of the source that are not given here. No end group written: not given here.

Consider SEEEEQLDQLLLAFIAAALQQ [Peptide P5-25], for which the HR entry in series [1] was “-”. Besides, the “Time before 20% degradation” value in series [2] (50 mM citrate pH 7.2, 0.09% AI) turned out to be 53 days. In addition, in the series on corn, the “drought resistance, experimental results” value is “not statistically significant”. In series [3], the “Effectiveness Covered (%)” value is on record as 93* % and the “Effectiveness Uncovered (%)” value is listed as 91* %. For the same sequence, in the series on soybean cyst nematodes (10 ug peptide per seed), the “reduction in cysts per gram root” value worked out at 92% and the “reduction in eggs per gram root” value amounted to 94%. Also, in the series on soybean cyst nematodes (30 ug peptide per seed), the “reduction in cysts per gram root” value was determined as 82% and the “reduction in eggs per gram root” value amounted to 85%. Besides, in the series on soybean cyst nematodes (90 ug peptide per seed), the “reduction in cysts per gram root” value amounted to 91% and the “reduction in eggs per gram root” value is reported as 93%. Further, the “degradation (more than 5% loss)” value in series [4] is recorded as “No significant degradation”.

Consider SEEQLDQLLLMFIMMMLQQEE [Peptide P5-46], for which the HR entry in [1] is given as “+”. In the series with corn (2.0 ug/ml), the “Dry Weight Increase (%)” value is 3.71% and the “Fresh Weight Increase (%)” value is 9.05** %. Moreover, in series [3], the “Effectiveness Covered (%)” value is listed as 74* % and the “Effectiveness Uncovered (%)” value is recorded as 85* %.

SEEQLELLLAFIAAALQQEE [Peptide P5-21]: the peptide remaining result in series [5] (after 14 days) was “around 80%”. In series [5] (all buffers pH>7.0 except EDTA, 50 mM, after 14 days), the “peptide remaining (stability)” value is given as > 90%. Besides, the “Time before 20% degradation” value in series [2] (50 mM citrate pH 7.2, 20% IPA, 0.09% AI) is reported as 41 days. Further, in series [4], the “degradation (more than 5% loss)” value was “No significant degradation”.

Consider SAGSEQQEDLLLMFIMMMLQQ [Peptide P5-35], for which the HR result in [1] is “Weak+”. Further, in the series on corn (2.0 ug/ml), the “Dry Weight Increase (%)” value is on record as −6.57* % and the “Fresh Weight Increase (%)” value is −6.05* %.

In the case of SEEQLDQLLLAFIAAALQEE [Peptide P5-27], the HR entry in [1] is “-”. The “Time before 20% degradation” value in series [2] (50 mM imidazole pH 7.5, 50% IPA, 0.09% AI) is given as 50 days. In addition, in the series on soy, the “Dry Weight Increase (%)” value is given as 2.04% and the “Fresh Weight Increase (%)” value is 4.07* %.

As for SAGSEQQLDLLLMFIMMMLQQ [Peptide P5], the “stability in buffer solutions” value in [5] (50 mM buffers) is reported as “generally poor stability”. In addition, the peptide remaining entry in [5] (after 14 days) is on record as “about 40%”. Also, the “Time before 20% degradation” value in series [2] (50 mM phosphate pH 8.0, 30% IPA, 5 mM DTPA, 0.09% AI) is on record as 21 days. Also, the “degradation (more than 5% loss)” value in series [4] is recorded as “No significant degradation”.

Take QLELLLAFIAAALQQ [Peptide P5-5]: the solubility result in series [6] is recorded as “Precipitation”.

Consider NQGISEKQQLDLLLAFIAAALQQ [Peptide P5-76], for which the HR result in series [1] is reported as “Weak+”. Besides, in the series on corn (0.2 ug/ml), the “Dry Weight Increase (%)” value is 5.33* % and the “Fresh Weight Increase (%)” value was 2.00%.
